Results on three compounds are retold here after the NIST ThermoML archive (doi:10.1016/j.fluid.2016.10.024).

One may read the refractive index as the speed of light in vacuum divided by its phase velocity in the sample.

SMILES strings stand for the structures. Numbers after ± are expanded uncertainties.

This series can be described thus: refractive index (Na D-line) (dimensionless). Conditions: 293.15 K; 101.33 kPa; Liquid; Standard Abbe refractometry.
In the case of `CC(C)=O` [acetone], the refractive index is listed as 1.3588 ± 0.0011.
Consider `CCC(C)O` (stereo not drawn) [butan-2-ol], for which the refractive index was found to be 1.3978 ± 0.0011.
In the case of `CCC(=O)O` [propanoic acid], the refractive index is given as 1.3809 ± 0.001.
